How the values were obtained:
Type in all cases: biochemical
PKA = PKA (Homo sapiens, UniProt P17612); test: PKA inhibition assay, coupled enzyme; details: average Ki if more than one determined
Method in brief: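 Coupled PK/LDH assay following NADH depletion: 18 nM PKA, 50 μM ATP, 80 μM Kemptide in 100 mM HEPES pH 7.5, 10 mM MgCl2, 25 mM NaCl, 1 mM DTT, 3% DMSO, at 30 °C. Compound preincubated 10 min before ATP start; initial rates over 15 min, IC50 and Ki by non-linear regression.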

Itk = target: T1, Itk (Homo sapiens, UniProt Q08881); test: Itk inhibition assay, coupled enzyme; details: average Ki if more than one determined
T1 sequence (Q08881 1-620): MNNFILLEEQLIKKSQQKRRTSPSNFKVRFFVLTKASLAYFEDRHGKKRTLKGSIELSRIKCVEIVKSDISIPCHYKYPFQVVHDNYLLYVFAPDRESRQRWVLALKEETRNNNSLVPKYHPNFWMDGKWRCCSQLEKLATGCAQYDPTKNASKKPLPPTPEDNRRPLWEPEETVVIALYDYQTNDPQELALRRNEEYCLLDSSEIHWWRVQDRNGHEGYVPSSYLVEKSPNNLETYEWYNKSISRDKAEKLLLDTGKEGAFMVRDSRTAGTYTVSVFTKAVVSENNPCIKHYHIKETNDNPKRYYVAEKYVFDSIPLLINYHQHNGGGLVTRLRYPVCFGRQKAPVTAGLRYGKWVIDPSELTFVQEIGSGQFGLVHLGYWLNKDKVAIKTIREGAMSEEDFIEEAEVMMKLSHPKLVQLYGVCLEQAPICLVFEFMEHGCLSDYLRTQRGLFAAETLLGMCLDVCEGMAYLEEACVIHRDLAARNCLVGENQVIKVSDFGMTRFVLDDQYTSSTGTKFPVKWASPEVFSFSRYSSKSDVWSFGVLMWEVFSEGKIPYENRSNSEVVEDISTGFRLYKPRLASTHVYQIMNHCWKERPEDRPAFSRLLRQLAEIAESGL
Procedure: Compounds were screened for their ability to inhibit Itk using a standard coupled enzyme assay (Fox et al., Protein Sci., (1998) 7, 2249). Assays were carried out in a mixture of 20 mM MOPS (pH 7.0), 10 mM MgCl2, 0.1% BSA, 1 mM DTT, 2.5 mM phosphoenolpyruvate, 300 μM NADH, 30 μg/ml pyruvate kinase and 10 μg/ml lactate dehydrogenase. Final substrate concentrations in the assay were 100 μM ATP (Sigma Chemicals) and 3 μM peptide (Biotinylated SAM68 D332-443). Assays were carried out at 25° C. and in the presence of 100 nM Itk.
An assay stock buffer solution was prepared containing all of the reagents listed above, with the exception of ATP and the test compound of interest. 60 μl of the stock solution was placed in a 96 well plate followed by addition of 2 μl of DMSO stock containing serial dilutions of the test compound (typically starting from a final concentration of 15 μM). The plate was preincubated for 10 minutes at 25° C. and the reaction initiated by addition of 5 μl of ATP. Initial reaction rates were determined with a Molecular Devices SpectraMax Plus plate reader over a 10 minute time course. IC50 and Ki data were calculated from non-linear regression analysis using the Prism software package (GraphPad Prism version 3.0cx for Macintosh, GraphPad Software, San Diego Calif., USA).

ROCK I (AA 6-553) = ROCK I (AA 6-553) (Homo sapiens, UniProt Q13464); test: ROCK inhibition assay, coupled enzyme system ("Enzyme"); details: enzyme-linked assay; average Ki if more than one determined
Sequence of ROCK I (AA 6-553) (Q13464 6-553, species assumed): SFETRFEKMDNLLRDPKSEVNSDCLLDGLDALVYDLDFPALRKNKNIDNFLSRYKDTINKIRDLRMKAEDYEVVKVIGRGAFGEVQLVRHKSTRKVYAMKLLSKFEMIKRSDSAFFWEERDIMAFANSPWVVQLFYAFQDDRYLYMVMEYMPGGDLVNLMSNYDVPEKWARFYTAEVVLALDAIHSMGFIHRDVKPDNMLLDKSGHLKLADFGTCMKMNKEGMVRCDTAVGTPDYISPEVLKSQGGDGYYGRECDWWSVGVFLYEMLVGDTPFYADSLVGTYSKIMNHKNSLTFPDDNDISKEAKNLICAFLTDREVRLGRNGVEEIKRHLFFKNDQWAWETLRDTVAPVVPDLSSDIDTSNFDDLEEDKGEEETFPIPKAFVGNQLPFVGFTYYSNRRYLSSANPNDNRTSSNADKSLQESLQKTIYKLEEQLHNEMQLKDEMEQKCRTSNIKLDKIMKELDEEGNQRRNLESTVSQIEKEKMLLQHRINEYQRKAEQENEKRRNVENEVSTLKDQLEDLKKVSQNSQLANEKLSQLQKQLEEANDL
Procedure: Reactions were carried out in a solution containing 100 mM HEPES (pH 7.5), 10 mM MgCl2, 25 mM NaCl, 2 mM DTT and 1.5% DMSO.
(§1) If more than one value of Ki has been determined, the average Ki is indicated. If no value is indicated, then the Ki was not determined.

ROCK = ROCK (Homo sapiens, UniProt Q13464); test: ROCK radioactive assay ("33P"); details: radioactive assay; average Ki if more than one determined; read-out: ROCK 33P Ki
Sequence of ROCK (Q13464 whole entry): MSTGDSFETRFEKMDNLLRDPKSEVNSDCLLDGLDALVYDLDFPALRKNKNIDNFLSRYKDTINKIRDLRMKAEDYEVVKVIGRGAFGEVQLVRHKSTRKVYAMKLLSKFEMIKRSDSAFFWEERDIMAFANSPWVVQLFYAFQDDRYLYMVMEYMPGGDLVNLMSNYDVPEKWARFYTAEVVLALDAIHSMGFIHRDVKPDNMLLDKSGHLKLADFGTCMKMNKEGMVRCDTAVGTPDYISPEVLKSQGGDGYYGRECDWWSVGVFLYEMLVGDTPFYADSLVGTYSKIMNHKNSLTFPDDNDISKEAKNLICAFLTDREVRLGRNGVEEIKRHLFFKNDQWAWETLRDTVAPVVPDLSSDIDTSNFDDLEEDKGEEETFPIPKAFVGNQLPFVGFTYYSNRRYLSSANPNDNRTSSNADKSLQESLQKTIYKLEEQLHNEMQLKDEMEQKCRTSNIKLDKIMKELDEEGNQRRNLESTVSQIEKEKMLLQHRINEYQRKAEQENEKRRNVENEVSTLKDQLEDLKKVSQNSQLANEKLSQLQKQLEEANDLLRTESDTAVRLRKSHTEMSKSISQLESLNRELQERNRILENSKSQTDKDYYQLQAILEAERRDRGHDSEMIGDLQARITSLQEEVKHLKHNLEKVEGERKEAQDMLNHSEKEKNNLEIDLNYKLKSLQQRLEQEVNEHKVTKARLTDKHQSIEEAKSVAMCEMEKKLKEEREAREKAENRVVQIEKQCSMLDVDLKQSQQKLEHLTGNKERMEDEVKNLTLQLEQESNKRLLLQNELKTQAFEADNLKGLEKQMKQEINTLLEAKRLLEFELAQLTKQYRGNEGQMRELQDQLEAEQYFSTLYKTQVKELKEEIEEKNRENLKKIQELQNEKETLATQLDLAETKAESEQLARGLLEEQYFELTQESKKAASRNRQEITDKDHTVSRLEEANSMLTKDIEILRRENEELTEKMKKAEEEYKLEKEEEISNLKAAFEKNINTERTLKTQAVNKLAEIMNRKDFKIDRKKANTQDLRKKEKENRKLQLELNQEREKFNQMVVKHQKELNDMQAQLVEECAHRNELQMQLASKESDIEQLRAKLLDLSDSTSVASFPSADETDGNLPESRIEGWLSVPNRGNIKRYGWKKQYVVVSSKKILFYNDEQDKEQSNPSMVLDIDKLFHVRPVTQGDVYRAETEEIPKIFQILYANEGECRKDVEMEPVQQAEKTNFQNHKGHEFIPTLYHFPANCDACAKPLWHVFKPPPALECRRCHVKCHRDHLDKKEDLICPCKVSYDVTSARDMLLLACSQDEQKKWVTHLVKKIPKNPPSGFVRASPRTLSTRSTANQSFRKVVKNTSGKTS
From the text: as §1

SMILES | Ki (PKA) [nM] | Ki (Itk) [nM] | Ki (ROCK I (AA 6-553)) [nM] | Ki (ROCK) [nM]
O=C(Cc1ccccc1)N(c1nc(-c2c[nH]c3ncccc23)cs1)C1CC1 [I-20] | < 500 | 500 to 5000 | < 500 | –
O=C(Cc1ccc(F)cc1)N(c1nc(-c2c[nH]c3ncccc23)cs1)C1CC1 [II-53] | < 500 | 500 to 5000 | < 500 | –
O=C(CCc1ccccc1)N(c1nc(-c2c[nH]c3ncccc23)cs1)C1CC1 [II-54] | < 500 | 500 to 5000 | < 500 | –
CN1CCN(CCOc2ccc(CC(=O)Nc3nc(-c4c[nH]c5ncccc45)cs3)c(Cl)c2)CC1 [II-109] | 500 to 5000 | – | < 500 | < 500
O=C(Cc1ccc(OCCCN2CCNCC2)cc1Cl)Nc1nc(-c2c[nH]c3ncccc23)cs1 [II-110] | 500 to 5000 | – | < 500 | < 500
CN1CCN(CCCOc2ccc(CC(=O)Nc3nc(-c4c[nH]c5ncccc45)cs3)c(Cl)c2)CC1 [II-111] | 500 to 5000 | – | < 500 | < 500
COc1cccc(CNC(=O)c2csc(-c3c[nH]c4ncccc34)c2)c1 [II-114] | < 500 | – | < 500 | < 500
CS(=O)(=O)Nc1cccc(CNC(=O)c2ccc(-c3c[nH]c4ncccc34)s2)c1 [II-115] | < 500 | – | < 500 | < 500
CS(=O)(=O)Nc1cccc(CNC(=O)c2csc(-c3c[nH]c4ncccc34)c2)c1 [II-117] | < 500 | – | < 500 | < 500
O=C(Cc1cccc(S(=O)(=O)N2CCOCC2)c1)Nc1nc(-c2c[nH]c3ncc(F)cc23)cs1 [II-121] | 500 to 5000 | – | < 500 | < 500
O=C(Cc1cccc(S(=O)(=O)NCCCN2CCNCC2)c1)Nc1nc(-c2c[nH]c3ncccc23)cs1 [II-123] | < 500 | – | < 500 | < 500
O=C(Cc1cccc(S(=O)(=O)N2CCC(O)C2)c1)Nc1nc(-c2c[nH]c3ncccc23)cs1 (centres unmarked) [II-124] | < 500 | – | < 500 | < 500
CN1CCN(CCCNS(=O)(=O)c2cccc(CC(=O)Nc3nc(-c4c[nH]c5ncccc45)cs3)c2)CC1 [II-125] | < 500 | – | < 500 | < 500
O=C(Cc1cccc(S(=O)(=O)NCCCN2CCOCC2)c1)Nc1nc(-c2c[nH]c3ncccc23)cs1 [II-126] | < 500 | – | < 500 | < 500
COc1cccc(CC(=O)Nc2ccc(-c3c[nH]c4ncccc34)s2)c1 [II-127] | < 500 | – | < 500 | < 500
CS(=O)(=O)Nc1cccc(CC(=O)Nc2ccc(-c3c[nH]c4ncccc34)s2)c1 [II-128] | < 500 | – | < 500 | < 500
O=C(Cc1cccc(S(=O)(=O)N2CCOCC2)c1)Nc1ccc(-c2c[nH]c3ncccc23)s1 [II-129] | 500 to 5000 | – | < 500 | < 500
O=C(NCC1CCNCC1)c1nc(-c2c[nH]c3ncc(-c4ccccc4)cc23)cs1 [II-245] | 500 to 5000 | 500 to 5000 | – | < 500

The remaining lines, values ahead:

Ki (PKA) [nM] | Ki (Itk) [nM] | Ki (ROCK I (AA 6-553)) [nM] | Ki (ROCK) [nM] | SMILES
< 500 | 500 to 5000 | – | – | O=C(Cc1ccccc1)Nc1nc(-c2c[nH]c3ncccc23)cs1 [I-1]
< 500 | 500 to 5000 | < 500 | < 500 | O=C(Cc1ccccc1)Nc1nc(-c2c[nH]c3ncc(Br)cc23)cs1 [II-79]
< 500 | – | < 500 | < 500 | N#CCC(=O)Nc1nc(-c2c[nH]c3ncccc23)cs1 [II-116]
< 500 | – | < 500 | < 500 | O=C(Cc1ccccc1)Nc1nc(-c2c[nH]c3ncc(F)cc23)cs1 [II-118]
< 500 | – | < 500 | < 500 | COc1cccc(CC(=O)Nc2nc(-c3c[nH]c4ncc(F)cc34)cs2)c1 [II-119]
< 500 | – | < 500 | < 500 | CS(=O)(=O)Nc1cccc(CC(=O)Nc2nc(-c3c[nH]c4ncc(F)cc34)cs2)c1 [II-120]
< 500 | – | < 500 | < 500 | O=C(Cc1ccc(F)cc1F)Nc1nc(-c2c[nH]c3ncc(F)cc23)cs1 [II-122]
500 to 5000 | 500 to 5000 | – | < 500 | CC(C)C(=O)Nc1nc(-c2c[nH]c3ncccc23)cs1 [II-162]
500 to 5000 | 500 to 5000 | – | < 500 | O=C(Nc1nc(-c2c[nH]c3ncc(Br)cc23)cs1)C1Cc2ccccc2C1 [II-246]
500 to 5000 | 500 to 5000 | – | < 500 | O=C(Nc1nc(-c2c[nH]c3ncc(Br)cc23)cs1)C1CC1 [II-247]
< 500 | 500 to 5000 | – | 500 to 5000 | O=C(CC1CCCC1)Nc1nc(-c2c[nH]c3ncc(Br)cc23)cs1 [II-248]
500 to 5000 | 500 to 5000 | – | < 500 | O=C(CCc1ccccc1)Nc1nc(-c2c[nH]c3ncc(Br)cc23)cs1 [II-249]
< 500 | 500 to 5000 | – | – | O=C(Cc1ccc(Br)cc1)Nc1nc(-c2c[nH]c3ncc(Br)cc23)cs1 [II-250]
< 500 | 500 to 5000 | – | 500 to 5000 | O=C(CCC1CCCCC1)Nc1nc(-c2c[nH]c3ncc(Br)cc23)cs1 [II-251]
500 to 5000 | 500 to 5000 | – | < 500 | O=C(Nc1nc(-c2c[nH]c3ncc(Br)cc23)cs1)C1CCOC1 (centres unmarked) [II-252]
< 500 | 500 to 5000 | – | 500 to 5000 | O=C(CCS(=O)(=O)c1ccccc1)Nc1nc(-c2c[nH]c3ncc(Br)cc23)cs1 [II-253]
500 to 5000 | 500 to 5000 | – | < 500 | O=C(CCOc1ccccc1)Nc1nc(-c2c[nH]c3ncc(Br)cc23)cs1 [II-254]
500 to 5000 | 500 to 5000 | – | – | O=C(CCNC(=O)OCc1ccccc1)Nc1nc(-c2c[nH]c3ncc(Br)cc23)cs1 [II-255]
– | 500 to 5000 | – | – | CCN(C(=O)CC1CCCC1)c1nc(-c2c[nH]c3ncc(Br)cc23)cs1 [II-256]
